The source of these data is PubChem BioAssay AID588659 (The Scripps Research Institute Molecular Screening Center, 2011).

Active and inactive are the calls of the source.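 The calls were made as follows: active = change in p38 protein level versus solvent-only treated cells of at least 30%, down or up; inactive = change under 30% either way.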

The target in test [1] is Mitogen-activated protein kinase 14 (Homo sapiens) (UniProt Q16539). Briefly: total p38 protein level change, either direction, late-stage follow-up, counter-screen for KLF5 inhibitor project, HT29 cells, chemiluminescent western blot, powder samples (AID 588659). The following applies: HT29 cells, p38 western blot, 24 h; at 10 µM; stronger effect = higher value. In general terms: Counterscreens check selectivity or assay interference.
Chain of Mitogen-activated protein kinase 14 (Homo sapiens) (Q16539 whole entry, looked up): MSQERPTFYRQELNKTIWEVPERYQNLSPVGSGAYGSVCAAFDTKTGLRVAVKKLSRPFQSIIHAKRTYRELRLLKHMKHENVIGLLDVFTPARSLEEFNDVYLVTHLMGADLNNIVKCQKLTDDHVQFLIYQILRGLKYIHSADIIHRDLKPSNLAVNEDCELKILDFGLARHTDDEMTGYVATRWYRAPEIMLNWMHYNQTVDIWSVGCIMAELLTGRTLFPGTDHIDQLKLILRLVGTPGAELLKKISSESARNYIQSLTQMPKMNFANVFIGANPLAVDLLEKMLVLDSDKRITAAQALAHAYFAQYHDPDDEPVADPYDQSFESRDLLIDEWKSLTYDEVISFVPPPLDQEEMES

In test [2] the test system is HT29 cells, p38 western blot, 24 h. Described as above. The conditions noted are these: measured here: p38 band fold change vs DMSO; at 10 µM.

Regarding `CN(C(=O)CNC(=O)/C=C/c1cccc(Cl)c1)C1CCS(=O)(=O)CC1`, in test [1], the inhibition is 10.2% (inactive).
For `CN(C(=O)CNC(=O)/C=C/c1cccc(Cl)c1)C1CCS(=O)(=O)C1` (centres undefined), the fold change in test [2] is 1.02. Moreover, the inhibition in test [1] was -2.37% (inactive).
In the case of `CN(C(=O)COC(=O)/C=C/c1cccc([N+](=O)[O-])c1)C1CCS(=O)(=O)C1` (centres undefined), the inhibition in test [1] is 14.3% (inactive).

Broadly, the inhibition is the change of the read-out against control, counted positive when it falls.
